Patent US12360118B2, “Method for protein kinase activity ranking” (KINOMICA LIMITED, priority 2015, dated 2025)

Key:
[1] = test system: eight haematological cell-lines; experiment: Viability of haematological cell-lines (Guava ViaCount) and sensitivity coefficient (SC); format: cell-based; settings: nine kinase inhibitors of Table 1
Protocol: B-cell lymphoma and leukemia cell-lines were routinely maintained in RPMI-1640 medium supplemented with 10% fetal-bovine serum (FBS) and 100 U·mL^−1 penicillin/streptomycin (P/S). Cells were maintained at a confluency of 0.5-2.0×10^6 cells·mL^−1. Stromal cells were grown in IMDM medium (supplemented with 10% FBS and 100 U·mL^−1 P/S) and maintained at a confluency of 2.0-30.0×10^6 cells in 175 cm^2 flasks. MS-5 conditioned IMDM medium was generated by growing stromal cells in IMDM for 3 days. All cells were kept at 37° C. in a humidified atmosphere at 5% CO2.
Cell-lines were seeded in 96 well plates (10,000 cells-well-), left overnight and treated with vehicle, or 1 to 1000 nM of AZD-5438 (CDK2i;), GF-109203X (PKCαi; Tocris), PF-3758309 (PAKi; Calbiochem), Trametinib (MEKi; Selleckchem), MK-2206 (AKTi; Selleckchem), KU-0063794 (mTORi; Chemdea) or TAK 715 (P38αi;). Cells were also treated with 0.01 to 10 μM of PKC-412 (PKC/Flt3i; Tocris) or 0.1 to 10 μM of TBB (CK2i; Sigma). After 72 h, cells were stained with Guava ViaCount reagent (Millipore) as indicated by the manufacturer and cell number and viability was measured using a Guava EasyCyte Plus instrument. […] After 72 h, cells were stained with Guava ViaCount reagent and cell number and viability was measured. […] Flow cytometry data were analyzed using CytoSoft (v2.5.7). IC50 values were calculated using Graphpad PRISM (v5.03). […]

primary AML cells = experiment: Viability of primary AML cells (Guava ViaCount), IC50 and SC; format: cell-based, human; settings: 36 primary AML cases; threshold 50% reduction in viability at 1 μM
Protocol: All patients gave informed consent for the storage of their blood cells for research purposes. Each procedure was conducted in accordance with the East London and City Research Ethics Committee, as previously described (Miraki-Moud, F. et al. Blood 125, 4060-4068 (2015)). All studies comply with the rules of the Review Board and by the revised Helsinki protocol. Peripheral blood was extracted from AML patients at St Bartholomew's Hospital and mononuclear cells, isolated using Ficoll gradient followed by red cell lysis, were stored in liquid N2. Primary AML blasts were thawed following standard procedures: briefly, vials were defrosted at 37 C and exposed to 500 μg of DNAse (Sigma) for 5 minutes. […] Cell number and viability were determined by trypan blue staining using a Vi-CELL XR cell viability analyser (Beckman Coulter).
Cell-lines were seeded in 96 well plates (10,000 cells-well-), left overnight and treated with vehicle, or 1 to 1000 nM of AZD-5438 (CDK2i;), GF-109203X (PKCαi; Tocris), PF-3758309 (PAKi; Calbiochem), Trametinib (MEKi; Selleckchem), MK-2206 (AKTi; Selleckchem), KU-0063794 (mTORi; Chemdea) or TAK 715 (P38αi;). […] After 72 h, cells were stained with Guava ViaCount reagent (Millipore) as indicated by the manufacturer and cell number and viability was measured using a Guava EasyCyte Plus instrument. […] Flow cytometry data were analyzed using CytoSoft (v2.5.7). […]

CDK2 = CDK2 (Homo sapiens, UniProt P24941); settings: off-target of the PKCα inhibitor; cited from earlier work
tyrosine kinases = experiment: K-score (Kinase Activity Ranking) of cells after pervanadate treatment, LC-MS/MS phosphoproteomics; format: cell-based; settings: 1 mM sodium pervanadate, 30 min; lysates mixed with untreated lysates
Protocol: Technical replicates were averaged and peak areas for each phosphopeptide ion were then normalized to the sum of peptide intensities for each sample. […] Kinase Activity Ranking (KAR) was calculated for kinase K using the equation below (where m=the number of phosphorylation sites in the dataset matched to kinase K; α=the normalized intensity of the phosphorylation site i; l=the total number of phosphorylation sites in the dataset regardless of any kinase-substrate association; β=the normalized intensity of the phosphorylation site j; t=the total number of known target phosphorylation sites in the PhosphoSitePlus database for kinase K). […]
P31/Fuj cells were exposed to 1 mM sodium pervanadate or left untreated during 30 min (Sodium pervanadate was prepared by mixing 30% H2O2 and 100 mM Na3VO4 pH 8.0 at 1:100 ratio during 15 min). […] After homogenization and protein quantification, treated and untreated cell lysates were mixed to a final protein concentration of 1.0 μg·μL^−1. […]
We first investigated the reproducibility and quantitative nature of Kinase Activity Ranking (KAR, which produces K-scores) as a measure of net kinase activity. […] To test the reproducibility of the analysis, we performed this experiment on three independent occasions and each was analyzed in analytical triplicate. […]

Molecule | Ranking of the kinase inhibitors based on their SCs (sensitivity coefficients) [1] | Number of cases sensitive to this inhibitor only (primary AML cells) | also measured
Cc1ncc(-c2ccnc(Nc3ccc(S(C)(=O)=O)cc3)n2)n1C(C)C [CDK2i, AZD5438] | ranked the highest | – | –
O=C(O)c1ccc2c(c1)nc(Nc1cccc(Cl)c1)c1ccncc12 [CK2i, CX4945] | – | Five | –
CC(=O)Nc1cccc(-n2c(=O)n(C3CC3)c(=O)c3c(Nc4ccc(I)cc4F)n(C)c(=O)c(C)c32)c1 [MEK1i, GSK1120212] | – | three | –
Cc1nc(Nc2[nH]nc3c2CN(C(=O)N[C@H](CN(C)C)c2ccccc2)C3(C)C)c2sccc2n1 [PAKi, PF03758309] | ranked the highest | – | –
CN(C)CCCn1cc(C2=C(c3c[nH]c4ccccc34)C(=O)NC2=O)c2ccccc21 [PKCαi, GF109203X] | – | – | Inhibition of CDK2 (CDK2): high potency
sodium pervanadate [pV] | – | – | Change of the K-Score of tyrosine kinases (tyrosine kinases): increase
